Results reported in paper PMC9964319, “Half-Sandwich Rhodium Complexes with Releasable N-Donor Monodentate Ligands: Solution Chemical Properties and the Possibility for Acidosis Activation” (Pharmaceutics, 2023).
Values after ≈ are worked out from the molar mass of the structure shown. Like-named read-outs stand apart in the source and are kept apart here.

What was measured:
Type in all cases: cell-based
[1] = tested on: E. coli ATCC 25922 (sensitive); assay: Antibacterial assay, MIC in 96-well plates at different pH
From the text: (§1) The antibacterial effect was studied in two Gram-positive and in two Gram-negative strains. The Gram-positive S. aureus ATCC 25923 (ATCC, Manassas, VA, USA) is a methicillin-susceptible reference bacterial strain, while S. aureus 272123 is a clinical isolate and resistant to methicillin and ofloxacin (MRSA), which was given by Prof. Dr. Leonard Amaral (Institute of Hygiene and Tropical Medicine, Lisbon, Portugal). The Gram-negative strains were E. coli ATCC 25922 (ATCC, Manassas, VA, USA), which is sensitive to antibiotics, and E. coli 32313 (provided by the Institute of Clinical Microbiology, University of Szeged, Hungary), which is resistant to different antibiotics (trimethoprim/sulfamethoxazole, gentamicin, ciprofloxacin, and norfloxacin).
(§2) The minimum inhibitory concentrations (MICs) of the compounds were determined in 96-well plates based on the Clinical and Laboratory Standard Institute guidelines. The compounds were diluted in 100 μL of Mueller Hinton broth. Then, an overnight bacterial culture diluted 10,000 times in 100 μL of medium was added to each well, with the exception of the medium control wells. For each strain and each tested compound, four pH values were set (5, 6, 7, and 8). Each sample was triplicated.

S. aureus 272123 (MRSA) = assay: as above
From the text: as §1, §2

[2] = tested on: E. coli 32313 (resistant); assay: as above
From the text: as §1, §2

[3] = tested on: S. aureus ATCC 25923 (methicillin-susceptible); assay: as above
From the text: as §1, §2

[4] = tested on: Colo320 human colon adenocarcinoma cell line (doxorubicin-resistant); assay: MTT assay, cytotoxicity at pH 6 and 7; details: Colo320, 72 h incubation, read-out: IC50
Experimental: (§3) All cell culture reagents were obtained from Sigma-Aldrich (Merck KGaA, Darmstadt, Germany) and plasticware from Sarstedt (Nümbrecht, Germany). Human colonic adenocarcinoma cell lines Colo205 (catalog number: ATCC-CCL-222) and its doxorubicin-resistant counterpart Colo320 (catalog number: ATCC-CCL-220.1) were purchased from LGC Promochem (Teddington, UK). The cells were cultured in RPMI 1640 medium supplemented with 10% heat-inactivated fetal bovine serum, 2 mM L-glutamine, 1 mM sodium pyruvate, and 100 mM HEPES buffer, adjusting the pH to 6.0 or 7.0. The cells were incubated at 37 °C in a 5% CO2–95% air atmosphere. The semiadherent human colon cancer cells were detached with Trypsin-Versene solution for 5 min at 37 °C.
(§4) The solutions were freshly prepared prior to measurements (see Section 2.1). […] Firstly, these samples were diluted in complete culture medium; then, two-fold serial dilutions of the compounds were prepared in 100 μL of RPMI 1640, horizontally. The semiadherent colonic adenocarcinoma cells were treated with Trypsin-Versene solution. They were adjusted to a density of 1 × 10^4 cells in 100 μL of RPMI 1640 medium and were added to each well, with the exception of the medium control wells. The final volume of the wells containing compounds and cells was 200 μL. Samples were triplicated. The pH of the medium was adjusted to 6.0 or 7.0.
(§5) The culture plates were incubated at 37 °C for 72 h; at the end of the incubation period, 20 μL of MTT solution (from a stock solution of 5 mg/mL) was added to each well. After incubation at 37 °C for 4 h, 100 μL of SDS solution (10% in 0.01 M HCI) was added to each well, and the plates were further incubated at 37 °C overnight. Cell growth was determined by measuring the optical density (OD) at 540/630 nm with a Multiscan EX ELISA reader (Thermo Labsystems, Cheshire, WA, USA). […] Curves were fitted using GraphPad Prism software (2022, version 9.4.1, Graphpad Software (LLC) d.b.a Dotmatics, San Diego, CA, USA) using the sigmoidal dose–response model (comparing variable and fixed slopes).
(§6) The pH-dependent solution speciation of the selected mixed-ligand complexes is an important feature in the hypothesized mechanism of action, and the modeling of acidosis is necessary for the in vitro anticancer assays. In order to find out the cytotoxicity difference based on the pH of the medium, cytotoxic activity was determined at pH 6 and 7 by MTT assay in two human colon adenocarcinoma cell lines (doxorubicin-sensitive Colo205 and doxorubicin-resistant Colo320). […] The mixed-ligand complexes were prepared prior to the measurements, as was already described in Section 2.1. With this method, the effect of the different counter ions could be avoided, and a more adequate comparison of the mixed-ligand complexes could be conducted.

[5] = tested on: Colo205 human colon adenocarcinoma cell line (doxorubicin-sensitive); assay: MTT assay, cytotoxicity at pH 6 and 7; details: Colo205, 72 h incubation, read-out: IC50
Experimental: as §3, §4, §5, §6

[6] = E. coli sensitive, pH 5, after one day, read-out: MIC
[7] = E. coli sensitive, pH 6, after one day, read-out: MIC
[8] = E. coli sensitive, pH 7, after one day, read-out: MIC
[9] = E. coli sensitive, pH 8, after one day, read-out: MIC
[10] = pH 5, after one day, read-out: MIC
[11] = pH 6, after one day, read-out: MIC
[12] = pH 7, after one day, read-out: MIC
[13] = pH 8, after one day, read-out: MIC
[14] = E. coli resistant, pH 5, after one day, read-out: MIC
[15] = E. coli resistant, pH 6, after one day, read-out: MIC
[16] = E. coli resistant, pH 7, after one day, read-out: MIC
[17] = E. coli resistant, pH 8, after one day, read-out: MIC
[18] = S. aureus sensitive, pH 7, after one day, read-out: MIC
[19] = S. aureus sensitive, pH 8, after one day, read-out: MIC

Oc1cccc2cccnc12 [Complex 8HQ, 8-hydroxyquinoline, reference compound]
MIC ([1]; Escherichia coli, ATCC25922, 24 h, pH 5): > 100 µM | MIC ([1]; Escherichia coli, ATCC25922, 24 h, pH 6): > 100 µM | MIC ([1]; Escherichia coli, ATCC25922, 24 h, pH 7): > 100 µM | MIC ([1]; Escherichia coli, ATCC25922, 24 h, pH 8): > 100 µM | MIC (S. aureus 272123 (MRSA); Staphylococcus aureus, 24 h, pH 5): 100 µM | MIC (S. aureus 272123 (MRSA); Staphylococcus aureus, 24 h, pH 6): 6.25 µM | MIC (S. aureus 272123 (MRSA); Staphylococcus aureus, 24 h, pH 7): 6.25 µM | MIC (S. aureus 272123 (MRSA); Staphylococcus aureus, 24 h, pH 8): 6.25 µM | MIC ([2]; Escherichia coli, 24 h, pH 5): > 100 µM | MIC ([2]; Escherichia coli, 24 h, pH 6): > 100 µM | MIC ([2]; Escherichia coli, 24 h, pH 7): > 100 µM | MIC ([2]; Escherichia coli, 24 h, pH 8): > 100 µM | MIC ([3]; Staphylococcus aureus, ATCC25923, 24 h, pH 7): 25 µM | MIC ([3]; Staphylococcus aureus, ATCC25923, 24 h, pH 8): 25 µM

Cc1c(C)c(C)[c-](C)c1C.[Cl-].[Cl-].[Rh+3].c1cnc2c(c1)ccc1cccnc12 [[RhCp*(phen)Cl]Cl]
IC50 ([4]; pH 6): > 100 µM | IC50 ([4]; pH 7): > 100 µM | IC50 ([5]; pH 6): > 100 µM | IC50 ([5]; pH 7): > 100 µM | MIC [1, 6]: > 100 µM | MIC [1, 7]: >100 µM | MIC [1, 8]: >100 µM | MIC [1, 9]: > 100 µM | MIC ([1]; any of the bacterial strains, E. coli, read-out: MIC (no antibacterial effect)): > 100 µM | MIC (S. aureus 272123 (MRSA); any of the bacterial strains, read-out: MIC (no antibacterial effect)): > 100 µM | MIC (S. aureus 272123 (MRSA); [10]): > 100 µM | MIC (S. aureus 272123 (MRSA); [11]): >100 µM | MIC (S. aureus 272123 (MRSA); [12]): >100 µM | MIC (S. aureus 272123 (MRSA); [13]): > 100 µM | MIC [2, 14]: > 100 µM | MIC [2, 15]: >100 µM | MIC [2, 16]: >100 µM | MIC [2, 17]: > 100 µM | MIC ([2]; any of the bacterial strains, resistant E. coli, read-out: MIC (no antibacterial effect)): > 100 µM | MIC [3, 18]: >100 µM | MIC [3, 19]: > 100 µM | MIC ([3]; any of the bacterial strains, S. aureus, read-out: MIC (no antibacterial effect)): > 100 µM

CC1=C(C)C(C)C(C)=C1C.[Rh+3].c1ccncc1.c1cnc2c(c1)ccc1cccnc12 [[RhCp*(phen)(Py)]^2+]
IC50 ([4]; pH 6): 83.6 ± 4.1 µM | IC50 ([4]; pH 7): > 100 µM | IC50 ([5]; pH 6): > 100 µM | IC50 ([5]; pH 7): > 100 µM

Cc1c(C)c(C)[c-](C)c1C.Clc1ccc(COC(Cn2ccnc2)c2ccc(Cl)cc2Cl)cc1.[Cl-].[Rh+2][O]c1cccc2cccnc12 (racemic) [[RhCp*(8HQH−1)Cl] +econ]
IC50 ([4]; pH 6): 4.52 ± 0.04 µM | IC50 ([4]; pH 7): 3 ± 0.1 µM | IC50 ([5]; pH 6, listed as [RhCp*(8HQH−1)(H2O)]^+ with econazole): ~1.8 µM | IC50 ([5]; pH 6): 1.8 ± 0.1 µM | IC50 ([5]; pH 7): 3.3 ± 0.1 µM | MIC [1, 6]: 25 µM | MIC [1, 7]: 25 µM | MIC [1, 8]: 25 µM | MIC [1, 9]: 25 µM | MIC (S. aureus 272123 (MRSA); [10]): 12.5 µM | MIC (S. aureus 272123 (MRSA); [11]): 6.25 µM | MIC (S. aureus 272123 (MRSA); [12]): 3.125 µM | MIC (S. aureus 272123 (MRSA); [13]): 3.125 µM | MIC [2, 14]: 50 µM | MIC [2, 15]: >100 µM | MIC [2, 16]: >100 µM | MIC [2, 17]: 50 µM | MIC [3, 18]: 0.39 µM | MIC [3, 19]: 0.39 µM

Clc1ccc(COC(Cn2ccnc2)c2ccc(Cl)cc2Cl)cc1 (centres unmarked) [econ, econazole, reference compound]
MIC [1, 7]: >100 µM | MIC [1, 8]: >100 µM | MIC ([1]; Escherichia coli, ATCC25922, 24 h, E. coli sensitive, pH 5, after one day, read-out: MIC): > 100 µM | MIC ([1]; Escherichia coli, ATCC25922, 24 h, E. coli sensitive, pH 6, after one day, read-out: MIC): > 100 µM | MIC ([1]; Escherichia coli, ATCC25922, 24 h, E. coli sensitive, pH 7, after one day, read-out: MIC): > 100 µM | MIC ([1]; Escherichia coli, ATCC25922, 24 h, E. coli sensitive, pH 8, after one day, read-out: MIC): > 100 µM | MIC (S. aureus 272123 (MRSA); Staphylococcus aureus, 24 h, pH 5, after one day, read-out: MIC): 25 µM (≈ 9.54 µg/mL) | MIC (S. aureus 272123 (MRSA); Staphylococcus aureus, 24 h, pH 6, after one day, read-out: MIC): 12.5 µM (≈ 4.77 µg/mL) | MIC (S. aureus 272123 (MRSA); Staphylococcus aureus, 24 h, pH 7, after one day, read-out: MIC): 6.25 µM (≈ 2.39 µg/mL) | MIC (S. aureus 272123 (MRSA); Staphylococcus aureus, 24 h, pH 8, after one day, read-out: MIC): 3.12 µM (≈ 1.19 µg/mL) | MIC [2, 15]: >100 µM | MIC [2, 16]: >100 µM | MIC ([2]; Escherichia coli, 24 h, E. coli resistant, pH 5, after one day, read-out: MIC): > 100 µM | MIC ([2]; Escherichia coli, 24 h, E. coli resistant, pH 6, after one day, read-out: MIC): > 100 µM | MIC ([2]; Escherichia coli, 24 h, E. coli resistant, pH 7, after one day, read-out: MIC): > 100 µM | MIC ([2]; Escherichia coli, 24 h, E. coli resistant, pH 8, after one day, read-out: MIC): > 100 µM | MIC ([3]; Staphylococcus aureus, ATCC25923, 24 h, S. aureus sensitive, pH 7, after one day, read-out: MIC): 0.78 µM (≈ 0.298 µg/mL) | MIC ([3]; Staphylococcus aureus, ATCC25923, 24 h, S. aureus sensitive, pH 8, after one day, read-out: MIC): 0.19 µM (≈ 0.0725 µg/mL)
